Where a name gives a salt, the structure may show the parent alone. Read-outs that look alike come from different tables or passages of the source.
Molecular target: T1, human calcium receptor (Homo sapiens, UniProt P41180)
T1 construct: expressed in transfected cells
T1 sequence (P41180 20-1078): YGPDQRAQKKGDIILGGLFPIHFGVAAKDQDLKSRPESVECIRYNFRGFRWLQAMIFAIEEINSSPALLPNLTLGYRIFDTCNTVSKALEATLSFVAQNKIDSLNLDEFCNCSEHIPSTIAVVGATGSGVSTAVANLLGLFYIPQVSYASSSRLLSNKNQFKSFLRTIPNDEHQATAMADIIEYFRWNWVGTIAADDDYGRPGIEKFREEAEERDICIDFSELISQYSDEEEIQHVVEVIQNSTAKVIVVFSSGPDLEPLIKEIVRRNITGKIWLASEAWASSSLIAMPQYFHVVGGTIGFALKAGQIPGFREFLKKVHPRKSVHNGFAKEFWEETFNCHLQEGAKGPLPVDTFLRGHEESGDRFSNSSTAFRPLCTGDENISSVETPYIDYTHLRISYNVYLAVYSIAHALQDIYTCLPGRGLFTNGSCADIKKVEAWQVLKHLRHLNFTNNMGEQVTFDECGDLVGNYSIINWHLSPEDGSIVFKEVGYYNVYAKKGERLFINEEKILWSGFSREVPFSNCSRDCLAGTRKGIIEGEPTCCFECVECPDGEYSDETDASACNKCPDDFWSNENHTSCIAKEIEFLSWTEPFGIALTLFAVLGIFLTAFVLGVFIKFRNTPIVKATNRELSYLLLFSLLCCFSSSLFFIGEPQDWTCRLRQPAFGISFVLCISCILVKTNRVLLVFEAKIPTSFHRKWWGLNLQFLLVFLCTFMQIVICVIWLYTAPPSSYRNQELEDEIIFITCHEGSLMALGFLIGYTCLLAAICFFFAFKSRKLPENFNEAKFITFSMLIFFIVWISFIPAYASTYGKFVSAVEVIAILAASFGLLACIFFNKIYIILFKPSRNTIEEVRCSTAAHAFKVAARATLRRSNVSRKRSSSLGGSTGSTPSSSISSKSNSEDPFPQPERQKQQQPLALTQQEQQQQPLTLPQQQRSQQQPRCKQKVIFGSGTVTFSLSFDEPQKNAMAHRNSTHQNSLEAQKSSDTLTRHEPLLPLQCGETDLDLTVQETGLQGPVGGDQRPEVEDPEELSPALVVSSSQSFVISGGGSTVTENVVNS
Assay: Calcium Receptor Inhibitor Assay
Type: cell-based
Description: This example illustrates the use of the Calcium Receptor Inhibitor Assay. […] Res. 10 Suppl. […] Intracellular Ca^2+ was measured using fluo-3, a fluorescent calcium indicator.
The procedure was as follows:
1. Cells were maintained in T-150 flasks in selection media (DMEM supplemented with 10% fetal bovine serum and 200 μg/mL hygromycin B), under 5% CO2:95% air at 37° C. and were grown up to 90% confluency.
2. The medium was decanted and the cell monolayer was washed twice with phosphate-buffered saline (PBS) kept at 37° C. After the second wash, 6 mL of 0.02% EDTA in PBS was added and incubated for 4 minutes at 37° C. Following the incubation, cells were dispersed by gentle agitation.
3. Cells from 2 or 3 flasks were pooled and pelleted (100×g). The cellular pellet was resuspended in […] of SPF-PCB+ and pelleted again by centrifugation. This washing was done twice.
SPF-PCB was made up and stored at 4° C. On the day of use, SPF-PCB was supplemented with 1 mg/mL of D-glucose and 1 mM CaCl2 and then split into two fractions. To one fraction, bovine serum albumin (BSA; fraction V, ICN) was added at 5 mg/mL (SPF-PCB+). This buffer was used for washing, loading and maintaining the cells. The BSA-free fraction was used for diluting the cells in the cuvette for measurements of fluorescence.
5. Following the incubation period, the cells were pelleted by centrifugation. The resulting pellet was washed with SPF-PCB+. After this washing, cells were resuspended in SPF-PCB+ at a density of 1–2×10^6 cells/mL.
6. For recording fluorescent signals, 300 μL of cell suspension were diluted in 1.2 mL of SPF buffer containing 1 mM CaCl2 and 1 mg/mL of D-glucose. Measurements of fluorescence were performed at 37° C. with constant stirring using a spectrofluorimeter. […] To calibrate fluorescence signals, digitonin (5 mg/mL in ethanol) was added to obtain Fmax, and the apparent Fmin was determined by adding Tris-EGTA (2.5 M Tris-Base, 0.3 M EGTA).
7. To determine the potential calcilytic activity of test compounds, cells were incubated with test compound (or vehicle as a control) for 90 seconds before increasing the concentration of extracellular Ca^2+ from 1 to 2 mM. Calcilytic compounds were detected by their ability to block, in a concentration-dependent manner, increases in the concentration of intracellular Ca^2+ elicited by extracellular Ca^2+.

[1] = HEK 293 4.0–7 cells stably expressing the human calcium receptor, fluo-3, read-out: IC50 for blocking increases of intracellular Ca2+ elicited by extracellular Ca2+

Compound: CCCCCCCCCCCCOCC(O)CNC(C)(C)Cc1ccc(OC)cc1 (stereo not shown) [Compound 72, N-(3-Dodecanoxy-2-hydroxypropyl)-1,1-dimethyl-2-(4-methoxyphenyl)ethylamine]
- IC50 [1]: < 1000 nM

Compound: COc1ccc(CC(C)(C)NCC(O)COc2c(Cl)cccc2Cl)cc1 (stereo not shown) [Compound 155, N-[2-hydroxy-3-(2,6-dichlorophenoxy)propyl]-1,1-dimethyl-2-(4-methoxyphenyl)ethylamine Hydrochloride]
- IC50 [1]: < 10000 nM

Compound: COc1ccc(CC(C)(C)NCC(O)COc2cccc3ccccc23)cc1 (stereo not shown) [Compound 19, N-[2-Hydroxy-3-(1-naphthoxy)propyl]-1,1-dimethyl-2-(4-methoxyphenyl)ethylamine Hydrochloride]
- IC50 [1]: < 1000 nM

Compound: COc1ccc(CC(C)(C)NCC(O)COc2cccc3[nH]c(C(N)=O)cc23)cc1 (stereo not shown) [Compound 9, N-[2-Hydroxy-3-(4-(2-carboxamido)indoloxy)propyl]-1,1-dimethyl-2-(4-methoxyphenyl)ethylamine Hydrochloride]
- IC50 [1]: < 50000 nM

Compound: COc1ccc(CC(C)(C)NCC(O)COC(C)C)cc1 (stereo not shown) [Compound 27, N-(2-Hydroxy-3-isoproproxypropyl)-1,1-dimethyl-2-(4-methoxyphenyl)ethylamine]
- IC50: < 10000 nM

Compound: COc1cccc(CC(C)(C)NCC(O)COc2ccccc2)c1 (stereo not shown) [Compound 99, N-(2-Hydroxy-3-phenoxypropyl)-1,1-dimethyl-2-(3-methoxyphenyl)ethylamine Hydrochloride]
- IC50 [1]: > 50000 nM

Compound: COc1ccc(CC(C)(C)NCC(O)COc2cc(Cl)ccc2Cl)cc1 (stereo not shown) [Compound 140, N-[2-hydroxy-3-(2,5-dichlorophenoxy)propyl]-1,1-dimethyl-2-(4-methoxyphenyl)ethylamine Hydrochloride]
- IC50 [1]: < 1000 nM

Compound: CCCCCCCCOCC(O)CNC(C)(C)Cc1ccc(OC)cc1 (stereo not shown) [Compound 65, N-(2-Hydroxy-3-octanoxypropyl)-1,1-dimethyl-2-(4-methoxyphenyl)ethylamine]
- IC50: < 1000 nM

Compound: COc1ccc(CC(C)(C)NCC(O)COc2cccc(C)c2)cc1 (stereo not shown) [Compound 45, N-[2-Hydroxy-3-(3-methylphenoxy)propyl]-1,1-dimethyl-2-(4-methoxyphenyl)ethylamine Hydrochloride]
- IC50 [1]: < 10000 nM

Compound: COc1ccc(CC(C)(C)NCC(O)COc2ccc(C(C)C)cc2)cc1 (stereo not shown) [Compound 145, N-[2-hydroxy-3-(4-iso-propylphenoxy)propyl]-1,1-dimethyl-2-(4-methoxyphenyl)ethylamine Hydrochloride]
- IC50 [1]: < 1000 nM

Compound: COc1ccc(CC(C)(C)NCC(O)CCc2ccccc2)cc1 (stereo not shown) [Compound 79, N-(2-Hydroxy-4-phenylbutyl)-1,1-dimethyl-2-(4-methoxyphenyl)ethylamine Hydrochloride]
- IC50: < 50000 nM

Compound: CCOc1ccc(CC(C)(C)NCC(O)COc2ccccc2)cc1 (stereo not shown) [Compound 102, N-(2-hydroxy-3-phenoxypropyl)-1,1-dimethyl-2-(4-ethoxyphenyl)ethylamine]
- IC50 [1]: > 50000 nM

Compound: CCCc1ccccc1OCC(O)CNC(C)(C)Cc1ccc(OC)cc1 (stereo not shown) [Compound 148, N-[2-hydroxy-3-(2-n-propylphenoxy)propyl]-1,1-dimethyl-2-(4-methoxyphenyl)ethylamine Hydrochloride]
- IC50 [1]: < 1000 nM

Compound: COc1ccc(CC(C)(C)NCC(O)COc2ccccc2C(F)(F)F)cc1 (stereo not shown) [Compound 47, N-[2-Hydroxy-3-(2-trifluoromethylphenoxylpropyl]-1,1-dimethyl-2-(4-methoxyphenyl)ethylamine Hydrochloride]
- IC50 [1]: < 1000 nM

Compound: COc1ccc(CC(C)(C)NCC(O)COc2ccccc2C#N)cc1 (stereo not shown) [Compound 142, N-[2-hydroxy-3-(2-cyanophenoxy)propyl]-1,1-dimethyl-2-(4-methoxyphenyl)ethylamine Hydrochloride]
- IC50 [1]: < 1000 nM

Compound: COc1ccc(CC(C)(C)NCC(O)COc2ccccc2C(C)(C)C)cc1 (stereo not shown) [Compound 48, N-[2-Hydroxy-3-(2-t-butylphenoxy)propyl]-1,1-dimethyl-2-(4-methoxyphenyl)ethylamine Hydrochloride]
- IC50 [1]: < 10000 nM

Compound: COc1ccc(CC(C)(C)NCC(O)COc2ccc3ccccc3c2)cc1 (stereo not shown) [Compound 35, N-[2-Hydroxy-3-(2-naphthoxy)propyl]-1,1-dimethyl-2-(4-methoxyphenyl)ethylamine Hydrochloride]
- IC50 [1]: < 10000 nM

Compound: COc1ccc(CC(C)(C)NCC(O)COc2ccccc2-c2ccccc2)cc1 (stereo not shown) [Compound 60, N-[2-hydroxy-3-(2-phenylphenoxy)propyl]-1,1-dimethyl-2-(4-methoxyphenyl)ethylamine]
- IC50 [1]: > 50000 nM

Compound: COc1ccc(CC(C)(C)NCC(O)COc2ccc(Cl)c(Cl)c2)cc1 (stereo not shown) [Compound 139, N-[2-hydroxy-3-(3,4-dichlorophenoxy)propyl]-1,1-dimethyl-2-(4-methoxyphenyl)ethylamine Hydrochloride]
- IC50 [1]: < 1000 nM

Compound: CC(C)c1ccc(CC(C)(C)NCC(O)COc2ccccc2)cc1 (stereo not shown) [Compound 112, N-(2-Hydroxy-3-phenoxypropyl)-1,1-dimethyl-2-(4-isopropylphenyl)ethylamine Hydrochloride]
- IC50 [1]: < 1000 nM

Compound: COc1ccc(CC(C)(C)NCC(O)COCCCCc2ccccc2)cc1 (stereo not shown) [Compound 127, N-[2-hydroxy-3-(4-phenyl-butanoxy)propyl]-1,1-dimethyl-2-(4-methoxyphenyl)ethylamine]
- IC50 [1]: < 1000 nM

Compound: CCOc1cccc(OCC(O)CNC(C)(C)Cc2ccc(OC)cc2)c1 (stereo not shown) [Compound 147, N-[2-hydroxy-3-(3-ethoxyphenoxy)propyl]-1,1-dimethyl-2-(4-methoxyphenyl)ethylamine Hydrochloride]
- IC50 [1]: < 10000 nM

Compound: COc1ccc(CC(C)(C)NCC(O)COc2ccccc2)c(F)c1 (stereo not shown) [Compound 129, N-(2-hydroxy-3-phenoxypropyl)-1,1-dimethyl-2-(2-fluoro-4-methoxyphenyl)ethylamine Hydrochloride]
- IC50 [1]: < 1000 nM

Compound: COc1ccc(CC(C)(C)NCC(O)COC2CCCCC2)cc1 (stereo not shown) [Compound 93, N-(2-hydroxy-3-cyclohexoxypropyl)-1,1-dimethyl-2-(4-methoxyphenyl)ethylamine]
- IC50: < 10000 nM

Compound: COc1ccc(CC(C)(C)NCC(O)CCCCCCCCO)cc1 (stereo not shown) [Compound 123, N-(2,10-Dihydroxydecyl)-1,1-dimethyl-2-(4-methoxyphenyl)ethylamine Hydrochloride]
- IC50: < 10000 nM

Compound: CC(C)(Cc1ccc2ccccc2c1)NCC(O)COc1ccccc1 (stereo not shown) [Compound 120, N-(2-Hydroxy-3-phenoxypropyl)-1,1-dimethyl-2-(2-naphthyl)ethylamine Hydrochloride]
- IC50 [1]: < 1000 nM

Compound: CCCN(CCC)S(=O)(=O)c1ccc(OC[C@H](O)CNC(C)(C)Cc2ccc(OC)cc2)c(Cl)c1Cl [Compound 165, N-[2(R)-Hydroxy-3-[(2,3-dichloro-4-dipropylsulfamoyl)phenoxyl-1-propyl]-N-[1,1-dimethyl-2-(4-methoxyphenyl)ethyl]amine hydrochloride salt]
- IC50 [1]: < 1000 nM

Compound: COc1ccc(CC(C)(C)NCC(O)COc2ccccc2)cc1C (stereo not shown) [Compound 117, N-(2-Hydroxy-3-phenoxypropyl)-1,1-dimethyl-2-(4-methoxy-3-methylphenyl)ethylamine Hydrochloride]
- IC50 [1]: < 1000 nM

Source: US7202261B2, “Calcilytic compounds” (NPS Pharmaceuticals, Inc., priority 1996, dated 2007)
